Key:
Test in all cases: relative viability (nuclei count vs DMSO), 5 days (fraction); higher = more cells survive
Calu-6 = test system: Calu-6
Method in brief: (§1)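 For relative viability, nuclei counts in treated wells were divided by those in vehicle wells. Lung cancer cell lines had been pin-tool dosed in 1536-well plates the day after seeding and cultured for 5 days, then fixed and stained in one step (final 0.05% Triton X-100, 1% formaldehyde, 1 ug/ml Hoechst) and imaged at 4×. Doses were one drug alone or a fixed anchor-drug dose plus five library-drug doses (not always all listed) in √10 steps, and values are duplicate-plate medians.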

NCI-H1703 = test system: NCI-H1703
Method in brief: as §1

CAL-12T = test system: CAL-12T
Method in brief: as §1

NCI-H1299 = test system: NCI-H1299
Method in brief: as §1

EBC-1 = test system: EBC-1
Method in brief: as §1

IA-LM = test system: IA-LM
Method in brief: as §1

NCI-H2228 = test system: NCI-H2228
Method in brief: as §1

A549 = test system: A549
Method in brief: as §1

NCI-H650 = test system: NCI-H650
Method in brief: as §1

NCI-H1623 = test system: NCI-H1623
Method in brief: as §1

NCI-H1563 = test system: NCI-H1563
Method in brief: as §1

## C=C1C(=O)O[C@@H](CCCCCCCC)[C@@H]1C(=O)O [C-75] + CC1(C)CCC(c2ccc(Cl)cc2)=C(CN2CCN(c3ccc(C(=O)NS(=O)(=O)c4ccc(N[C@H](CCN5CCOCC5)CSc5ccccc5)c(S(=O)(=O)C(F)(F)F)c4)cc3)CC2)C1 [Navitoclax] (partner 0.5 µM)
Calu-6; first compound 0.08 µM
  relative viability: 0.819
Calu-6; first compound 0.253 µM
  relative viability: 0.864
Calu-6; first compound 0.8 µM
  relative viability: 0.786
Calu-6; first compound 2.53 µM
  relative viability: 0.738
Calu-6; first compound 8 µM
  relative viability: 0.714
NCI-H1703; first compound 0.08 µM
  relative viability: 1.15
NCI-H1703; first compound 0.253 µM
  relative viability: 1.12
NCI-H1703; first compound 0.8 µM
  relative viability: 0.817
NCI-H1703; first compound 2.53 µM
  relative viability: 1.09
NCI-H1703; first compound 8 µM
  relative viability: 0.967
CAL-12T; first compound 0.08 µM
  relative viability: 1.47
CAL-12T; first compound 0.253 µM
  relative viability: 1.44
CAL-12T; first compound 0.8 µM
  relative viability: 1.17
CAL-12T; first compound 8 µM
  relative viability: 1.08
NCI-H1299; first compound 0.08 µM
  relative viability: 1.07
NCI-H1299; first compound 0.253 µM
  relative viability: 1.03
NCI-H1299; first compound 0.8 µM
  relative viability: 1.05
NCI-H1299; first compound 2.53 µM
  relative viability: 1.03
NCI-H1299; first compound 8 µM
  relative viability: 1.12
EBC-1; first compound 0.08 µM
  relative viability: 0.389
EBC-1; first compound 0.253 µM
  relative viability: 0.508
EBC-1; first compound 0.8 µM
  relative viability: 0.306
EBC-1; first compound 2.53 µM
  relative viability: 0.356
EBC-1; first compound 8 µM
  relative viability: 0.219
IA-LM; first compound 0.08 µM
  relative viability: 0.754
IA-LM; first compound 0.253 µM
  relative viability: 0.834
IA-LM; first compound 0.8 µM
  relative viability: 0.819
IA-LM; first compound 2.53 µM
  relative viability: 0.52
IA-LM; first compound 8 µM
  relative viability: 0.512
NCI-H2228; first compound 0.08 µM
  relative viability: 1.04
NCI-H2228; first compound 0.253 µM
  relative viability: 1.21
NCI-H2228; first compound 0.8 µM
  relative viability: 0.707
NCI-H2228; first compound 2.53 µM
  relative viability: 0.973
NCI-H2228; first compound 8 µM
  relative viability: 0.75
A549; first compound 0.08 µM
  relative viability: 1.12
A549; first compound 0.253 µM
  relative viability: 1.29
A549; first compound 0.8 µM
  relative viability: 1.18
A549; first compound 2.53 µM
  relative viability: 0.819
A549; first compound 8 µM
  relative viability: 1.15

## C=C1C(=O)O[C@@H](CCCCCCCC)[C@@H]1C(=O)O [C-75] + CC(=O)Nc1cccc(-n2c(=O)n(C3CC3)c(=O)c3c(Nc4ccc(I)cc4F)n(C)c(=O)c(C)c32)c1 [Trametinib] (partner 0.02 µM)
CAL-12T; first compound 0.08 µM
  relative viability: 0.373
CAL-12T; first compound 0.253 µM
  relative viability: 0.455
CAL-12T; first compound 0.8 µM
  relative viability: 0.31
CAL-12T; first compound 2.53 µM
  relative viability: 0.301
CAL-12T; first compound 8 µM
  relative viability: 0.313
NCI-H2228; first compound 0.08 µM
  relative viability: 0.666
NCI-H2228; first compound 0.253 µM
  relative viability: 0.673
NCI-H2228; first compound 0.8 µM
  relative viability: 0.444
NCI-H2228; first compound 2.53 µM
  relative viability: 0.372
NCI-H2228; first compound 8 µM
  relative viability: 0.519
NCI-H650; first compound 0.08 µM
  relative viability: 0.965
NCI-H650; first compound 0.253 µM
  relative viability: 0.961
NCI-H650; first compound 0.8 µM
  relative viability: 0.967
NCI-H650; first compound 2.53 µM
  relative viability: 0.768
NCI-H650; first compound 8 µM
  relative viability: 1

## C=C1C(=O)O[C@@H](CCCCCCCC)[C@@H]1C(=O)O [C-75] + CC(=O)c1c(C)c2cnc(Nc3ccc(N4CCNCC4)cn3)nc2n(C2CCCC2)c1=O [Palbociclib] (partner 0.5 µM)
CAL-12T; first compound 0.08 µM
  relative viability: 0.531
CAL-12T; first compound 0.253 µM
  relative viability: 0.533
CAL-12T; first compound 0.8 µM
  relative viability: 0.452
CAL-12T; first compound 2.53 µM
  relative viability: 0.458
CAL-12T; first compound 8 µM
  relative viability: 0.449
NCI-H2228; first compound 0.08 µM
  relative viability: 0.743
NCI-H2228; first compound 0.253 µM
  relative viability: 0.988
NCI-H2228; first compound 0.8 µM
  relative viability: 0.589
NCI-H2228; first compound 2.53 µM
  relative viability: 0.7
NCI-H2228; first compound 8 µM
  relative viability: 0.681
NCI-H650; first compound 0.08 µM
  relative viability: 0.31
NCI-H650; first compound 0.253 µM
  relative viability: 0.27
NCI-H650; first compound 0.8 µM
  relative viability: 0.36
NCI-H650; first compound 2.53 µM
  relative viability: 0.283
NCI-H650; first compound 8 µM
  relative viability: 0.39

## C=C1C(=O)O[C@@H](CCCCCCCC)[C@@H]1C(=O)O [C-75] + Cc1nc(Nc2ncc(C(=O)Nc3c(C)cccc3Cl)s2)cc(N2CCN(CCO)CC2)n1 [Dasatinib] (partner 0.075 µM)
CAL-12T; first compound 0.08 µM
  relative viability: 0.391
CAL-12T; first compound 0.253 µM
  relative viability: 0.393
CAL-12T; first compound 0.8 µM
  relative viability: 0.432
CAL-12T; first compound 2.53 µM
  relative viability: 0.317
CAL-12T; first compound 8 µM
  relative viability: 0.303
NCI-H1623; first compound 0.08 µM
  relative viability: 0.591
NCI-H1623; first compound 0.253 µM
  relative viability: 0.649
NCI-H1623; first compound 0.8 µM
  relative viability: 0.516
NCI-H1623; first compound 2.53 µM
  relative viability: 0.447
NCI-H1623; first compound 8 µM
  relative viability: 0.695
NCI-H2228; first compound 0.08 µM
  relative viability: 0.613
NCI-H2228; first compound 0.253 µM
  relative viability: 0.627
NCI-H2228; first compound 0.8 µM
  relative viability: 0.524
NCI-H2228; first compound 2.53 µM
  relative viability: 0.394
NCI-H2228; first compound 8 µM
  relative viability: 0.396
NCI-H650; first compound 0.08 µM
  relative viability: 0.469
NCI-H650; first compound 0.253 µM
  relative viability: 0.328
NCI-H650; first compound 0.8 µM
  relative viability: 0.383
NCI-H650; first compound 2.53 µM
  relative viability: 0.358
NCI-H650; first compound 8 µM
  relative viability: 0.398
NCI-H1563; first compound 0.08 µM
  relative viability: 0.387
NCI-H1563; first compound 0.253 µM
  relative viability: 0.453
NCI-H1563; first compound 0.8 µM
  relative viability: 0.444
NCI-H1563; first compound 2.53 µM
  relative viability: 0.415
NCI-H1563; first compound 8 µM
  relative viability: 0.569

## C=C1C(=O)O[C@@H](CCCCCCCC)[C@@H]1C(=O)O [C-75] + NC(=O)Nc1cc(-c2cccc(F)c2)sc1C(=O)N[C@H]1CCCNC1 [AZD7762] (partner 0.2 µM)
NCI-H1703; first compound 0.08 µM
  relative viability: 0.125
NCI-H1703; first compound 0.253 µM
  relative viability: 0.126
NCI-H1703; first compound 0.8 µM
  relative viability: 0.115
NCI-H1703; first compound 8 µM
  relative viability: 0.149
CAL-12T; first compound 0.08 µM
  relative viability: 0.683
CAL-12T; first compound 0.253 µM
  relative viability: 0.713
CAL-12T; first compound 0.8 µM
  relative viability: 0.586
CAL-12T; first compound 2.53 µM
  relative viability: 0.548
CAL-12T; first compound 8 µM
  relative viability: 0.64
NCI-H650; first compound 0.08 µM
  relative viability: 0.935
NCI-H650; first compound 0.253 µM
  relative viability: 0.796
NCI-H650; first compound 0.8 µM
  relative viability: 1.01
NCI-H650; first compound 2.53 µM
  relative viability: 0.81
NCI-H650; first compound 8 µM
  relative viability: 1.02

Reference: the supplement of paper PMC10307832
